Reference: patent US4472404A, “8-Quinolinyl carbamates and their use as urinary tract antimicrobials” (priority 1982, dated 1984)
In brackets after ≈: the same amount, converted by molar mass. Where two headings read alike, the source gives them in different places.

What was measured:
Assay type in all cases: cell-based
Aspergillus niger = experiment: Agar-plate minimum inhibitory concentration (Example 12); settings: agar, 72-120 hours, read-out: Minimum Inhibitory Concentration
Method: (§1) The test compound was added to molten agar as a solution (when conveniently soluble in a solvent such as dimethylformamide) or a suspension forming a mixture having a concentration of 0.05 percent (500 ppm). The mixture was stirred and poured into plates to harden. When hardened, the plates were inoculated with various bacteria and fungi. The bacteria-inoculated plates were incubated at 37° C. for 24 hours, while the fungi-inoculated plates were incubated for about 72-120 hours. Following incubation, the plates were examined for growth or inhibition of the respective organisms.
(§2) After the initial readings, compounds showing sufficient activity were re-tested at various concentrations to determine the minimum inhibitory concentration (in ppm) of the compounds of the invention against the various bacteria and fungi tested.

Bacillus subtilis = experiment: as above; settings: agar, 37° C., 24 hours, read-out: Minimum Inhibitory Concentration
Method: as §1, §2

Candida albicans = experiment: as above; settings: agar, 72-120 hours, read-out: Minimum Inhibitory Concentration
Method: as §1, §2

Candida pelliculosa = experiment: as above; settings: Hansenula anomala; Candida pelliculosa; agar, 72-120 hours; read-out: Minimum Inhibitory Concentration
Method: as §1, §2

Ceratocystis ips = experiment: as above; settings: Ceratocystis ips; agar, 72-120 hours; read-out: Minimum Inhibitory Concentration
Method: as §1, §2

Salmonella typhosa = experiment: as above; settings: Salmonella enterica; Salmonella typhosa; agar, 37° C., 24 hours; read-out: Minimum Inhibitory Concentration
Method: as §1, §2

Streptococcus mutans = experiment: as above; settings: agar, 37° C., 24 hours, read-out: Minimum Inhibitory Concentration
Method: as §1, §2

[1] = test system: Trichophyton mentagrophytes; experiment: as above; settings: agar, 72-120 hours, read-out: Minimum Inhibitory Concentration
Method: as §1, §2

[2] = test system: Enterobacter aerogenes ATCC 13048; experiment: Minimum inhibitory concentration, urinary tract organisms (Example 13); settings: Klebsiella aerogenes
Method: as §1, §2
(§3) Following a procedure substantially the same as that described in Example 12, the minimum inhibitory concentration for the compounds described herein was determined for various organisms representative of those commonly associated with urinary tract infections.
(§4) The organisms used in this procedure and the abbreviations designated in Table 3 are as follows: […]

[3] = test system: Escherichia coli ATCC 11229; experiment: as above
Method: as §1, §2, §3, §4

[4] = test system: Escherichia coli ATCC 25922; experiment: as above
Method: as §1, §2, §3, §4

[5] = test system: Escherichia coli ATCC 4157; experiment: as above
Method: as §1, §2, §3, §4

[6] = test system: Escherichia coli ATCC 9723; experiment: as above
Method: as §1, §2, §3, §4

[7] = test system: Klebsiella pneumoniae ATCC 23357; experiment: as above
Method: as §1, §2, §3, §4

[8] = test system: Klebsiella pneumoniae M-1; experiment: as above
Method: as §1, §2, §3, §4

[9] = test system: Klebsiella pneumoniae M-2; experiment: as above
Method: as §1, §2, §3, §4

[10] = test system: Klebsiella pneumoniae M-6; experiment: as above
Method: as §1, §2, §3, §4

Proteus mirabilis 470/1 = experiment: as above
Method: as §1, §2, §3, §4

[11] = test system: Pseudomonas aeruginosa ATCC 10145; experiment: as above
Method: as §1, §2, §3, §4

[12] = test system: Pseudomonas aeruginosa ATCC 27853; experiment: as above
Method: as §1, §2, §3, §4

[13] = test system: Pseudomonas aeruginosa ATCC 7700; experiment: as above
Method: as §1, §2, §3, §4

[14] = test system: Pseudomonas aeruginosa PRD-10; experiment: as above
Method: as §1, §2, §3, §4

Serratia marcescens M-1 = experiment: as above
Method: as §1, §2, §3, §4

[15] = test system: Staphylococcus aureus ATCC 25923; experiment: as above
Method: as §1, §2, §3, §4

[16] = ATCC13048, Ea 13048, read-out: Minimum Inhibitory Concentration
[17] = ATCC11229, Ec 11229, read-out: Minimum Inhibitory Concentration
[18] = ATCC25922, Ec 25922, read-out: Minimum Inhibitory Concentration
[19] = ATCC4157, Ec 4157, read-out: Minimum Inhibitory Concentration
[20] = ATCC9723, Ec 9723, read-out: Minimum Inhibitory Concentration
[21] = ATCC23357, Kp 23357, read-out: Minimum Inhibitory Concentration
[22] = M1, Kp M-1, read-out: Minimum Inhibitory Concentration
[23] = M2, Kp M-2, read-out: Minimum Inhibitory Concentration
[24] = M6, Kp M-6, read-out: Minimum Inhibitory Concentration
[25] = Pm 470/1, read-out: Minimum Inhibitory Concentration
[26] = ATCC10145, Pa 10145, read-out: Minimum Inhibitory Concentration
[27] = ATCC27853, Pa 27853, read-out: Minimum Inhibitory Concentration
[28] = ATCC7700, Pa 7700, read-out: Minimum Inhibitory Concentration
[29] = PRD10, Pa PRD-10, read-out: Minimum Inhibitory Concentration
[30] = M1, Sr M-1, read-out: Minimum Inhibitory Concentration
[31] = ATCC25923, Sa 25923, read-out: Minimum Inhibitory Concentration
[32] = M1, read-out: Minimum Inhibitory Concentration

Compound | MIC (Aspergillus niger) [µg/mL] | MIC (Bacillus subtilis) [µg/mL] | MIC (Candida albicans) [µg/mL] | MIC (Candida pelliculosa) [µg/mL] | MIC (Ceratocystis ips) [µg/mL] | MIC [2, 16] [µg/mL] | MIC [3, 17] [µg/mL] | MIC [4, 18] [µg/mL] | MIC [5, 19] [µg/mL] | MIC [6, 20] [µg/mL] | MIC [7, 21] [µg/mL] | MIC [8, 22] [µg/mL] | MIC [9, 23] [µg/mL] | MIC [10, 24] [µg/mL] | MIC (Proteus mirabilis 470/1; [25]) [µg/mL] | MIC [12, 27] [µg/mL] | MIC [13, 28] [µg/mL] | MIC [14, 29] [µg/mL] | MIC (Serratia marcescens M-1; [30]) [µg/mL] | MIC [15, 31] [µg/mL] | also measured
CCOC(=O)CNC(=O)Oc1ccc(Cl)c2cccnc12 [Example 1, Ethyl N-(((5-chloro-8-quinolinyl)oxy)-carbonyl)glycinate] | 10 (≈ 32.4 µM) | 10 (≈ 32.4 µM) | 10 (≈ 32.4 µM) | 10 (≈ 32.4 µM) | 50 (≈ 162 µM) | 50 (≈ 162 µM) | 25 (≈ 81 µM) | 25 (≈ 81 µM) | 25 (≈ 81 µM) | 25 (≈ 81 µM) | 25 (≈ 81 µM) | 50 (≈ 162 µM) | 50 (≈ 162 µM) | 25 (≈ 81 µM) | 50 (≈ 162 µM) | 100 (≈ 324 µM) | 100 (≈ 324 µM) | 100 (≈ 324 µM) | 50 (≈ 162 µM) | ≤ 5 | MIC (Salmonella typhosa): 50 µg/mL (≈ 162 µM); MIC (Streptococcus mutans): 100 µg/mL (≈ 324 µM); MIC [1]: 10 µg/mL (≈ 32.4 µM); MIC [11, 26]: 25 µg/mL (≈ 81 µM)
CCOC(=O)CNC(=O)Oc1c(Br)cc(Br)c2cccnc12 [Example 2, Ethyl N-(((5,7-dibromo-8-quinolinyl)oxy)carbonyl)glycinate] | 50 (≈ 116 µM) | 0.5 (≈ 1.16 µM) | 50 (≈ 116 µM) | 10 (≈ 23.1 µM) | 50 (≈ 116 µM) | 75 (≈ 174 µM) | 25 (≈ 57.9 µM) | 25 (≈ 57.9 µM) | 25 (≈ 57.9 µM) | 25 (≈ 57.9 µM) | 250 (≈ 579 µM) | 50 (≈ 116 µM) | 25 (≈ 57.9 µM) | 25 (≈ 57.9 µM) | 25 (≈ 57.9 µM) | 75 (≈ 174 µM) | 250 (≈ 579 µM) | 75 (≈ 174 µM) | 250 (≈ 579 µM) | 25 (≈ 57.9 µM) | MIC (Salmonella typhosa): 50 µg/mL (≈ 116 µM); MIC (Streptococcus mutans): 50 µg/mL (≈ 116 µM); MIC [1]: 50 µg/mL (≈ 116 µM); MIC [11, 26]: 25 µg/mL (≈ 57.9 µM)
CCOC(=O)CNC(=O)Oc1cccc2ccc(C)nc12 [Example 3, Ethyl N-(((2-methyl-8-quinolinyl)oxy)carbonyl)glycinate] | 500 (≈ 1730 µM) | 10 (≈ 34.7 µM) | 500 (≈ 1730 µM) | 500 (≈ 1730 µM) | 500 (≈ 1730 µM) | 250 (≈ 867 µM) | 75 (≈ 260 µM) | 75 (≈ 260 µM) | 100 (≈ 347 µM) | 100 (≈ 347 µM) | 250 (≈ 867 µM) | 250 (≈ 867 µM) | 250 (≈ 867 µM) | 250 (≈ 867 µM) | 250 (≈ 867 µM) | > 1000 | > 1000 | > 1000 | 750 (≈ 2600 µM) | 25 (≈ 86.7 µM) | MIC (Salmonella typhosa): 50 µg/mL (≈ 173 µM); MIC (Streptococcus mutans): 500 µg/mL (≈ 1730 µM); MIC [1]: 500 µg/mL (≈ 1730 µM); MIC [11, 26]: 250 µg/mL (≈ 867 µM)
CCOC(=O)CNC(=O)Oc1c(Cl)cc(Cl)c2cccnc12 [Example 4, Ethyl N-(((5,7-dichloro-8-quinolinyl)oxy)carbonyl)glycinate] | 10 (≈ 29.1 µM) | 1 (≈ 2.91 µM) | 10 (≈ 29.1 µM) | 5 (≈ 14.6 µM) | 50 (≈ 146 µM) | 25 (≈ 72.9 µM) | 10 (≈ 29.1 µM) | 10 (≈ 29.1 µM) | 10 (≈ 29.1 µM) | 10 (≈ 29.1 µM) | 25 (≈ 72.9 µM) | 25 (≈ 72.9 µM) | 25 (≈ 72.9 µM) | 25 (≈ 72.9 µM) | 10 (≈ 29.1 µM) | 50 (≈ 146 µM) | 50 (≈ 146 µM) | 50 (≈ 146 µM) | 25 (≈ 72.9 µM) | 10 (≈ 29.1 µM) | MIC (Salmonella typhosa): 10 µg/mL (≈ 29.1 µM); MIC (Streptococcus mutans): 500 µg/mL (≈ 1460 µM); MIC [1]: 10 µg/mL (≈ 29.1 µM); MIC [11, 26]: 10 µg/mL (≈ 29.1 µM)
O=C(NCCCl)Oc1ccc(Cl)c2cccnc12 [Example 6, 5-Chloro-8-quinolinyl N-(2-chloroethyl)carbamate] |  |  |  |  |  | 500 (≈ 1750 µM) | 75 (≈ 263 µM) | 75 (≈ 263 µM) | 250 (≈ 877 µM) | 50 (≈ 175 µM) | 250 (≈ 877 µM) | 250 (≈ 877 µM) | 500 (≈ 1750 µM) | 250 (≈ 877 µM) | 250 (≈ 877 µM) | 500 (≈ 1750 µM) | 500 (≈ 1750 µM) | 500 (≈ 1750 µM) | 500 (≈ 1750 µM) | < 5 | 
CNC(=O)Oc1c(Br)cc(Br)c2cccnc12 [Example 11, 5,7-Dibromo-8-quinolinyl N-methylcarbamate] |  |  |  |  |  |  |  |  |  |  |  |  |  |  |  |  |  |  |  |  | MIC ([2]; ATCC13048, read-out: Minimum Inhibitory Concentration): 25 µg/mL (≈ 69.4 µM); MIC ([3]; ATCC11229, read-out: Minimum Inhibitory Concentration): 25 µg/mL (≈ 69.4 µM); MIC ([4]; ATCC25922, read-out: Minimum Inhibitory Concentration): 25 µg/mL (≈ 69.4 µM); MIC ([5]; ATCC4157, read-out: Minimum Inhibitory Concentration): 25 µg/mL (≈ 69.4 µM); MIC ([6]; ATCC9723, read-out: Minimum Inhibitory Concentration): 25 µg/mL (≈ 69.4 µM); MIC ([7]; ATCC23357, read-out: Minimum Inhibitory Concentration): 25 µg/mL (≈ 69.4 µM); MIC [8, 32]: 25 µg/mL (≈ 69.4 µM); MIC ([9]; M2, read-out: Minimum Inhibitory Concentration): 25 µg/mL (≈ 69.4 µM); MIC ([10]; M6, read-out: Minimum Inhibitory Concentration): 25 µg/mL (≈ 69.4 µM); MIC (Proteus mirabilis 470/1; 470/1, read-out: Minimum Inhibitory Concentration): 25 µg/mL (≈ 69.4 µM); MIC ([11]; ATCC10145, read-out: Minimum Inhibitory Concentration): 25 µg/mL (≈ 69.4 µM); MIC ([12]; ATCC27853, read-out: Minimum Inhibitory Concentration): 100 µg/mL (≈ 278 µM); MIC ([13]; ATCC7700, read-out: Minimum Inhibitory Concentration): 100 µg/mL (≈ 278 µM); MIC ([14]; PRD10, read-out: Minimum Inhibitory Concentration): 100 µg/mL (≈ 278 µM); MIC (Serratia marcescens M-1; [32]): 50 µg/mL (≈ 139 µM); MIC ([15]; ATCC25923, read-out: Minimum Inhibitory Concentration): 25 µg/mL (≈ 69.4 µM)
